This note sets out measurements from US20110217265A1, “Screening for Inhibitors of HCV Amphipathic Helix (AH) Function” (priority 2008, published 2011).

Data set [1] concerns Huh7.5 cells. The data set is described as follows: Alamar Blue cell viability assay. In kind it is cell-based, human. As to the method: Antiviral Assays of Compounds. Subconfluent Huh7.5 cells were trypsinized and collected by centrifugation at 700 g for 5 min. The cells were then washed three times in ice-cold RNasefree PBS buffer (BioWhittaker) and resuspended at 1.5×10^7 cells·ml^−1 in PBS buffer. Wild-type FL-J6/JFH-5′C19Rluc2AUbi and Bart79I-luc RNAs for electroporation were generated by in vitro transcription of XbaI (FL-J6/JFH-5′C19Rluc2AUbi) and ScaI (Bart791-luc)-linearized DNA templates using the T7 MEGAscript kit (Ambion), followed by phenol-chloroform purification and DEPC water suspension, 5 μg of RNA were mixed with 400 μl of washed Huh7.5 cells in a 2-mm-gap cuvette (BTX) and immediately pulsed (0.82 kV (FL-J6/JFH-5′C19Rluc2AUbi) and 0.68 kV (Bart79I-luc), five […] pulses) with a BTX-830 electroporator. After 10 min recovery at 25° C., pulsed cells were diluted into 20 ml of pre-warmed growth medium. Cells from several electroporations were pooled to a common stock and seeded in 96-well plates (17,000-20,000 cells per well). After 24 hr, compounds were added to the cells and media changes were performed daily with fresh compounds. After 72 hr of treatment, cells were incubated for 2 hr at 37° C. in the presence of 10% Alamar Blue reagent (TREK Diagnostic Systems) to assess for cytotoxicity. […] The signal was normalized relative to untreated samples. Viral RNA replication was determined using Renilla (FL-J6/JFH-5′C19Rluc2AUbi) or firefly (Bart791-luc) luciferase assays, according to the manufacturer's (Promega) directions. The same samples subjected to the viability assay described below were analyzed in this assay. According to the manufacturer protocol, cells were washed with PBS buffer and shaken at room temperature for 15 min in 20 μl of lysis buffer. Reporter assays were performed directly in the wells of the culture plates by injecting 100 μl of the assay substrate into each well. Luminescence was measured over 10 seconds with a 2-second delay using a Berthold LB 96 V luminometer. Signal was normalized relative to untreated samples or samples grown in the presence of the corresponding concentration of DMSO. Experiments were repeated three times, each time with 4 replicates.

In data set [2] the test system is 2a HCV RNA replicon. Description: 2a HCV RNA replicon assay (FL-J6/JFH-5'C19Rluc2AUbi, luciferase). As to conditions: Hepatitis C virus, read-out: 2a (%) Percent of virus activity remaining in the presence of the compound. Format: cell-based, Hepatitis C Virus genotype 2a. An excerpt:
Plasmids. Bart79I, a high-efficiency subgenomic replicon of HCV (28), harbors the neomycin resistance gene (neo) and the HCV nonstructural proteins. The Bart-Luciferase plasmid, Bart79I-luc, was cloned from the Bart791 parent (29) and the pGL3-Basic parent (Promega). In brief, a NotI site was introduced after the 15th amino acid of Core in Bart791 using PCR mutagenesis. The plasmid pcDNA3.1-NS4B, which encodes the Con1 NS4B sequence and was used to study the protein stability of the wild type and mutant NS4Bs, was described previously. To introduce the M2 mutation into the 4BAH2 of plasmids encoding HCV replicons or NS4B, the nucleotide sequence GCG that encodes for alanine at NS4B amino acid position 51 was changed to GAG (encoding for glutamate) and the nucleotide sequence TGG that encodes for tryptophan at amino acid position 55 was changed to GAT (encoding for aspartate) through the use of Quick-ChangeTMXL site-directed mutagenesis kit (Stratagene, La Jolla, Calif.) as described by the manufacturer and confirmed by sequencing. FL-J6/JFH-5′C19Rluc2AUbi, which is a monocistronic, full-length HCV genome that expresses Renilla luciferase (Rluc) and was derived from the previously described infectious genotype 2a HCV genome J6/JFH1.
Antiviral Assays of Compounds. Subconfluent Huh7.5 cells were trypsinized and collected by centrifugation at 700 g for 5 min. The cells were then washed three times in ice-cold RNasefree PBS buffer (BioWhittaker) and resuspended at 1.5×10^7 cells·ml^−1 in PBS buffer. Wild-type FL-J6/JFH-5′C19Rluc2AUbi and Bart79I-luc RNAs for electroporation were generated by in vitro transcription of XbaI (FL-J6/JFH-5′C19Rluc2AUbi) and ScaI (Bart791-luc)-linearized DNA templates using the T7 MEGAscript kit (Ambion), followed by phenol-chloroform purification and DEPC water suspension, 5 μg of RNA were mixed with 400 μl of washed Huh7.5 cells in a 2-mm-gap cuvette (BTX) and immediately pulsed (0.82 kV (FL-J6/JFH-5′C19Rluc2AUbi) and 0.68 kV (Bart79I-luc), five […] pulses) with a BTX-830 electroporator. After 10 min recovery at 25° C., pulsed cells were diluted into 20 ml of pre-warmed growth medium. Cells from several electroporations were pooled to a common stock and seeded in 96-well plates (17,000-20,000 cells per well). After 24 hr, compounds were added to the cells and media changes were performed daily with fresh compounds. After 72 hr of treatment, cells were incubated for 2 hr at 37° C. in the presence of 10% Alamar Blue reagent (TREK Diagnostic Systems) to assess for cytotoxicity. Plates were then scanned and fluorescence was detected by using a FLEXstation II 384 (Molecular Devices). The signal was normalized relative to untreated samples. Viral RNA replication was determined using Renilla (FL-J6/JFH-5′C19Rluc2AUbi) or firefly (Bart791-luc) luciferase assays, according to the manufacturer's (Promega) directions. The same samples subjected to the viability assay described below were analyzed in this assay. According to the manufacturer protocol, cells were washed with PBS buffer and shaken at room temperature for 15 min in 20 μl of lysis buffer. Reporter assays were performed directly in the wells of the culture plates by injecting 100 μl of the assay substrate into each well. Luminescence was measured over 10 seconds with a 2-second delay using a Berthold LB 96 V luminometer. Signal was normalized relative to untreated samples or samples grown in the presence of the corresponding concentration of DMSO. Experiments were repeated three times, each time with 4 replicates.

On to `COC(=O)c1cccc(NC(=O)c2nc(Cl)c(N(C)CC(C)C)nc2N)c1.O=C(O)C(F)(F)F` [ID 343, methyl 3-(3-amino-6-chloro-5-(isobutyl(methyl)amino)pyrazine-2-carboxamido)benzoate 2,2,2-trifluoroacetate], for which the “Cell Viability (%), alamar blue” value came out at 98% in data set [1] (5 μM) and 93% in data set [1] (10 μM). The activity at 5 µM in data set [2] turned out to be 65%. Moreover, the activity at 10 µM in data set [2] worked out at 38%.

As for `Cc1cc(NC(=O)c2nc(Cl)c(N(C)CC(C)C)nc2N)no1.Cl` [ID 236, 3-amino-6-chloro-5-(isobutyl(methyl)amino)-N-(5-methylisoxazol-3-yl)pyrazine-2-carboxamide hydrochloride], the “Cell Viability (%), alamar blue” value in data set [1] (5 μM) was 96%. The “Cell Viability (%), alamar blue” value in data set [1] (10 μM) is on record as 78%. In data set [2], the activity at 5 µM stood at 92% and the activity at 10 µM came out at 51%.

Consider `Cc1ccncc1NC(=O)c1nc(Cl)c(N2CCCC2)nc1N` [ID 420, 3-amino-6-chloro-N-(4-methylpyridin-3-yl)-5-(pyrrolidin-1-yl)pyrazine-2-carboxamide 2,2,2-trifluoroacetate], for which the results for the “Cell Viability (%), alamar blue” value in data set [1] (5 μM) and in data set [1] (10 μM) were 73% and 72%, respectively. In addition, in data set [2], the activity at 5 µM came out at 52%. In addition, the activity at 10 µM in data set [2] was determined as 49%.

For the compound `CC(C)CN(C)c1nc(N)c(C(=O)Nc2ccncc2)nc1Cl.Cl` [ID 203, 3-amino-6-chloro-5-(isobutyl(methyl)amino)-N-(pyridin-4-yl)pyrazine-2-carboxamide hydrochloride], the “Cell Viability (%), alamar blue” value in data set [1] (5 μM) came to 92%. Moreover, the “Cell Viability (%), alamar blue” value in data set [1] (10 μM) is 90%. For the same compound, in data set [2], the activity at 5 µM was found to be 68% and the activity at 10 µM was 59%.

For `CC(C)CN(C)c1nc(N)c(C(=O)Nc2ccccc2)nc1Cl` [ID 295, 3-amino-6-chloro-5-(isobutyl(methyl)amino)-N-phenylpyrazine-2-carboxamide], the “Cell Viability (%), alamar blue” value in data set [1] (5 μM) was above 100%; in data set [1] (10 μM), 90%. The activity at 5 µM in data set [2] turned out to be 65%. Also, the activity at 10 µM in data set [2] was 47%.

For `CCN(CC)c1nc(N)c(C(=O)Nc2cnccc2C)nc1Cl` [ID 460, 3-amino-6-chloro-5-(diethylamino)-N-(4-methylpyridin-3-yl)pyrazine-2-carboxamide 2,2,2-trifluoroacetate], the “Cell Viability (%), alamar blue” value in data set [1] (5 μM) turned out to be 85%. For the same compound, the “Cell Viability (%), alamar blue” value in data set [1] (10 μM) is 73%. In data set [2], the activity at 5 µM came out at 45% and the activity at 10 µM is 22%.

`CCN(C)c1nc(N)c(C(=O)Nc2cnccc2C)nc1Cl` [ID 469, 3-amino-6-chloro-5-(ethyl(methyl)amino)-N-(4-methylpyridin-3-yl)pyrazine-2-carboxamide 2,2,2-trifluoroacetate]: the “Cell Viability (%), alamar blue” value in data set [1] (5 μM) is 75%. Besides, in data set [1] (10 μM), the “Cell Viability (%), alamar blue” value stood at 71%. Further, in data set [2], the activity at 5 µM is 65% and the activity at 10 µM is 42%.

As to `COc1cc(C)c(NC(=O)c2nc(Cl)c(N(C)CC(C)C)nc2N)cn1` [ID 294, 3-amino-6-chloro-5-(isobutyl(methyl)amino)-N-(6-methoxy-4-methylpyridin-3-yl)pyrazine-2-carboxamide bis(2,2,2-trifluoroacetate)], the “Cell Viability (%), alamar blue” value in data set [1] (5 μM) was determined as 100%. In data set [1] (10 μM), the “Cell Viability (%), alamar blue” value stood at 68%. Moreover, in data set [2], the activity at 5 µM is 58% and the activity at 10 µM worked out at 22%.

On to `CC(C)CN(C)c1nc(N)c(C(=O)NCc2nccs2)nc1Cl.Cl` [ID 149, 3-amino-6-chloro-5-(isobutyl(methyl)amino)-N-(thiazol-2-ylmethyl)pyrazine-2-carboxamide hydrochloride], for which, in data set [1] (5 μM), the “Cell Viability (%), alamar blue” value is above 100%. The “Cell Viability (%), alamar blue” value in data set [1] (10 μM) is recorded as above 100%. Also, in data set [2], the activity at 5 µM was 68% and the activity at 10 µM stood at 50%.
